The record followed here is patent US9932349B2 (priority 2000, dated 2018).

One assay deals with T1, δ opioid receptor (Cavia porcellus, UniProt A0A286XTF2).
T1 construct: determined in guinea pig brain cells; from tissue; host or cells: guinea pig brain
Description: biochemical. Format: binding, guinea pig.

Another assay has as its target T2, κ opioid receptor (Cavia porcellus, UniProt P41144).
T2 construct: determined in guinea pig brain cells; from tissue; host or cells: guinea pig brain
Kind of assay: biochemical. Type of assay: binding, guinea pig.

Read-outs that look alike come from different tables or passages of the source.

T2 sequence (P41144 whole entry): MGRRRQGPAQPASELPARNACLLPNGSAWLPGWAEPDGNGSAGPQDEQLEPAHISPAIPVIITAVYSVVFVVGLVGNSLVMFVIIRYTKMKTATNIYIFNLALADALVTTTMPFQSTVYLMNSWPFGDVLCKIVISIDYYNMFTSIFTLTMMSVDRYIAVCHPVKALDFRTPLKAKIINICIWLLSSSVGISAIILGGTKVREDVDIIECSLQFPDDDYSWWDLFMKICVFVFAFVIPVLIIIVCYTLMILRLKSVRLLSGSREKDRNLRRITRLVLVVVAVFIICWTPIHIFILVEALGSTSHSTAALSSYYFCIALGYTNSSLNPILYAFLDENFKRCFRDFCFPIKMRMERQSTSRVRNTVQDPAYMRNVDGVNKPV
T1 sequence (A0A286XTF2 1-366): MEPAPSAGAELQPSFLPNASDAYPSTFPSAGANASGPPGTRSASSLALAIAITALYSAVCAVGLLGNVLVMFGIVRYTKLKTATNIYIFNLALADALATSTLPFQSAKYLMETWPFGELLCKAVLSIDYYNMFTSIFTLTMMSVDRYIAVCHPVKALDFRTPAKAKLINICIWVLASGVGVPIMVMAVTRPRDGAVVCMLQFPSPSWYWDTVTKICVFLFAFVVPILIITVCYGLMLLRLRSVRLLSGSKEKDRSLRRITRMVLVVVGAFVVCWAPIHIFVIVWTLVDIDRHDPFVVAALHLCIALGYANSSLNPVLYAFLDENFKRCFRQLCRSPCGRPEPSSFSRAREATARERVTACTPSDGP

On to `C[C@H]1[C@H]2Cc3ccc(CN)cc3[C@]1(C)CCN2C[C@@H]1CCCO1` [Example 29], for which the Ki came out at 300 ± 27 nM on δ opioid receptor ([3H] Naltrindole (δ)) and 18 ± 1.9 nM on κ opioid receptor ([3H] U69,593 (κ)).

For `C[C@H]1[C@H]2C(=O)c3ccc(C(N)=O)cc3[C@]1(C)CCN2CC1CC1` (relative stereo) [Example 23], the Ki at δ opioid receptor ([3H] Naltrindole (δ)) stood at 20 ± 2.3 nM; on κ opioid receptor ([3H] U69,593 (κ)), 1.8 ± 0.1 nM.

With `CC1C2Cc3ccc(NC=O)cc3C1(C)CCN2CC1CC1` (mixture of isomers) [Example 19, (±)-N-[3-(Cyclopropylmethyl)-1,2,3,4,5,6,-hexahydro-cis-6,11-dimethyl-2,6-methano-3-benzazocin-8-yl]-formamide], the Ki on δ opioid receptor (read-out: Ki [3H] Naltrindole (δ)) turned out to be 37 ± 3.9 nM; on κ opioid receptor (read-out: Ki [3H] U69,593 (κ)), 0.85 ± 0.08 nM. For `C[C@H]1C2Cc3ccc(C#N)cc3[C@@]1(C)CCN2CC1CC1` (racemic) [Example 1, (±)-3-(Cyclopropylmethyl)-1,2,3,4,5,6-hexahydro-cis-6,11-dimethyl-2,6-methano-3-benzazocin-8-carbonitrile], the Ki on δ opioid receptor (Ki [3H] Naltrindole (δ)) was determined as 2700 ± 1400 nM; at κ opioid receptor (Ki [3H] U69,593 (κ)) it was 71 ± 13 nM. In the case of `CC1C2Cc3ccc(C(N)=O)cc3C1(C)CCN2CC1CC1` (single isomer, unassigned) [Example 4a], at δ opioid receptor (Ki [3H] Naltrindole (δ)), the Ki came out at 2.6 ± 0.6 nM. Turning to `CC1C2Cc3ccc(C(N)=O)cc3C1(C)CCN2CC1CCCO1` (single isomer, unassigned) [Example 28], the figures for the Ki on δ opioid receptor ([3H] Naltrindole (δ)) and at κ opioid receptor ([3H] U69,593 (κ)) were 34 ± 0.1 nM and 2.8 ± 0.24 nM, respectively.

Consider `COc1ccc(CNC(=O)c2ccc3c(c2)[C@]2(C)CCN(CC4CC4)[C@H](C3)[C@@H]2C)cc1` (racemic) [Example 10], for which the Ki on δ opioid receptor (Ki [3H] Naltrindole (δ)) came out at 150 ± 17 nM; on κ opioid receptor (Ki [3H] U69,593 (κ)), 110 ± 3.1 nM. For `C[C@H]1[C@H]2Cc3ccc(C(=O)NO)cc3[C@]1(C)CCN2CC1CC1` (racemic) [Example 6] the same measures were 210 ± 40 nM and 6.9 ± 0.61 nM. For `C[C@H]1[C@H]2Cc3ccc(C(=O)NCCCN(C)C)cc3[C@]1(C)CCN2CC1CC1` (racemic) [Example 12], in that order: 3000 ± 230 nM and 310 ± 64 nM. For `CC1C2Cc3ccc(NC=O)cc3C1(C)CCN2CC1CC1` (single isomer, unassigned) [Example 19a] the same measures were 9.8 ± 0.28 nM and 0.49 ± 0.012 nM.

Regarding `COC(=O)c1ccc2c(c1)[C@@]1(C)CCN(CC3CC3)C(C2)[C@@H]1C` (racemic) [Example 3, (±)-3-(Cyclopropylmethyl)-1,2,3,4,5,6,-hexahydro-cis-6,11-dimethyl-2,6-methano-3-benzazocin-8-carboxylic acid methyl ester], the Ki on δ opioid receptor (Ki [3H] Naltrindole (δ)) is 59 ± 2.1 nM; on κ opioid receptor (Ki [3H] U69,593 (κ)) it was 2 ± 0.21 nM. Consider `CC1C2Cc3ccc(O)cc3C1(C)CCN2CC1CCCO1` (single isomer, unassigned) [Example 25, reference compound], for which the Ki on δ opioid receptor ([3H] Naltrindole (δ)) turned out to be 3.6 ± 0.4 nM; at κ opioid receptor ([3H] U69,593 (κ)), 0.09 ± 0.01 nM.

On δ opioid receptor (Ki [3H] Naltrindole (δ)), `CC1C2Cc3ccc(C(N)=O)cc3C1(C)CCN2CC1CC1` (single isomer, unassigned) [Example 4b] came in with a Ki of 570 ± 50 nM.

Take `CCC12CCN(CC3CC3)C(C(=O)c3ccc(NC=O)cc31)C2C` (centres unmarked) [Example 40]: the results for the Ki at δ opioid receptor (read-out: [3H] Naltrindole (δ)) and on κ opioid receptor (read-out: [3H] U69,593 (κ)) were 52 ± 3.4 nM and 1.2 ± 0.11 nM, respectively. For the compound `C[C@H]1C2Cc3ccc(CO)cc3[C@@]1(C)CCN2CC1CC1` (racemic) [Example 16, (±)-[3-(Cyclopropylmethyl)-1,2,3,4,5,6,-hexahydro-cis-6,11-dimethyl-2,6-methano-3-benzazocin-8-yl]-methanol], the Ki at δ opioid receptor (Ki [3H] Naltrindole (δ)) came to 210 ± 29 nM; on κ opioid receptor (Ki [3H] U69,593 (κ)) it was 7.6 ± 0.8 nM. Turning to `C[C@H]1[C@H]2Cc3ccc(O)cc3[C@]1(C)CCN2CC1CC1` [(−)-Cyclazocine, Cyclazocine, reference compound], the values for the Ki on δ opioid receptor (read-out: [3H] Naltrindole (δ)) and on κ opioid receptor (read-out: [3H]U69,593 (κ)) were 0.58 ± 0.06 nM and 0.052 ± 0.009 nM, respectively.

Turning to `CC1C2Cc3ccc(C(=O)NCc4ccccc4)cc3C1(C)CCN2CC1CC1` (centres unmarked) [Example 9], the Ki was found to be 140 ± 18 nM at δ opioid receptor (Ki [3H] Naltrindole (δ)) and 78 ± 7.6 nM at κ opioid receptor (Ki [3H] U69,593 (κ)).

Consider `C[C@H]1[C@H]2Cc3ccc(NS(C)(=O)=O)cc3[C@]1(C)CCN2CC1CC1` (racemic) [Example 21], for which the Ki on δ opioid receptor (Ki [3H] Naltrindole (δ)) turned out to be 780 ± 170 nM; on κ opioid receptor (Ki [3H] U69,593 (κ)), 21 ± 1.5 nM. For `CC1[C@@H]2Cc3ccc(C(=N)NO)cc3[C@@]1(C)CCN2CC1CC1` (mixture of isomers) [Example 14, (±)-3-(Cyclopropylmethyl)-1,2,3,4,5,6-hexahydro-N-hydroxy-cis-6,11-dimethyl-2,6-methano-3-benzazocin-8-carboxamidine] the same measures were 16 ± 0.67 nM and 0.9 ± 0.15 nM.

`CC1C2Cc3ccc(C(N)=O)cc3C1(C)CCN2CC1CCCO1` (single isomer, unassigned) [Example 26]: the Ki at δ opioid receptor ([3H] Naltrindole (δ)) is 2 ± 0.15 nM; on κ opioid receptor ([3H] U69,593 (κ)), 0.089 ± 0.004 nM.

As to `CC1C2C(=O)c3ccc(C#N)cc3C1(C)CCN2CC1CC1` (centres unmarked) [Example 22], the Ki came out at 3400 ± 410 nM on δ opioid receptor ([3H] Naltrindole (δ)) and 59 ± 0.77 nM on κ opioid receptor ([3H] U69,593 (κ)).

On to `CC1C2Cc3ccc(NC=S)cc3C1(C)CCN2CC1CC1` (centres unmarked) [Example 20], for which the results for the Ki at δ opioid receptor (Ki [3H] Naltrindole (δ)) and at κ opioid receptor (Ki [3H] U69,593 (κ)) were 16 ± 0.3 nM and 0.63 ± 0.15 nM, respectively. As to `C[C@H]1[C@H]2Cc3ccc(O)cc3[C@]1(C)CCN2CC1CC1` [(+)-Cyclazocine, Cyclazocine, reference compound], the Ki stood at 1100 ± 63 nM on δ opioid receptor (read-out: [3H] Naltrindole (δ)) and 76 ± 8.2 nM on κ opioid receptor (read-out: [3H]U69,593 (κ)). Consider `CNC(=O)c1ccc2c(c1)C1(C)CCN(CC3CC3)C(C2)C1C` (centres unmarked) [Example 8], for which the Ki on δ opioid receptor (Ki [3H] Naltrindole (δ)) turned out to be 63 ± 4.1 nM; at κ opioid receptor (Ki [3H] U69,593 (κ)) it was 2.6 ± 0.19 nM. In the case of `C[C@H]1C2Cc3ccc(C(N)=S)cc3[C@@]1(C)CCN2CC1CC1` (racemic) [Example 5, (±)-3-(Cyclopropylmethyl)-1,2,3,4,5,6-hexahydro-cis-6,11-dimethyl-2,6-methano-3-benzazocin-8-thiocarboxamide], the Ki at δ opioid receptor (Ki [3H] Naltrindole (δ)) was 4 ± 0.48 nM; at κ opioid receptor (Ki [3H] U69,593 (κ)), 0.67 ± 0.01 nM. In the case of `CC[C@@]12CCN(CC3CC3)C(C(=O)c3ccc(O)cc31)C2C` (mixture of isomers) [(±)-EKC, Ethylketocyclazocine, reference compound], the Ki at δ opioid receptor ([3H] Naltrindole (δ)) worked out at 3.4 ± 0.41 nM.

As to `CCC12CCN(CC3CC3)C(C(=O)c3ccc(C(N)=O)cc31)C2C` (centres unmarked) [Example 24], the Ki on δ opioid receptor (read-out: [3H] Naltrindole (δ)) is 9.8 ± 0.5 nM; on κ opioid receptor (read-out: [3H] U69,593 (κ)), 0.7 ± 0.08 nM.

In the case of `CC1C2Cc3ccc(C(=O)c4ccccc4)cc3C1(C)CCN2CC1CC1` (centres unmarked) [Example 17], the Ki is 490 ± 43 nM at δ opioid receptor (Ki [3H] Naltrindole (δ)) and 19 ± 2.6 nM on κ opioid receptor (Ki [3H] U69,593 (κ)). Turning to `Oc1ccc2c3c1O[C@H]1c4[nH]c5ccccc5c4C[C@@]4(O)[C@@H](C2)N(CC2CC2)CC[C@]314` [naltrindole (3-OH), Naltrindole, reference compound], at κ opioid receptor ([3H] U69,593 (κ)), the Ki stood at 4.6 ± 0.23 nM. As for `C[C@H]1[C@H]2Cc3ccc(C(=O)O)cc3[C@]1(C)CCN2CC1CC1` (racemic) [Example 2], the values for the Ki on δ opioid receptor (Ki [3H] Naltrindole (δ)) and at κ opioid receptor (Ki [3H] U69,593 (κ)) were 320 ± 14 nM and 31 ± 0.87 nM, respectively. In the case of `CC1C2Cc3ccc(C(=O)NN)cc3C1(C)CCN2CC1CC1` (centres unmarked) [Example 7], at κ opioid receptor (Ki [3H] U69,593 (κ)), the Ki was found to be 19 ± 1.4 nM. With `CC1C2Cc3ccc(C(=NO)c4ccccc4)cc3C1(C)CCN2CC1CC1` (centres unmarked) [Example 18], the values for the Ki at δ opioid receptor (Ki [3H] Naltrindole (δ)) and on κ opioid receptor (Ki [3H] U69,593 (κ)) were 180 ± 15 nM and 7.2 ± 0.4 nM, respectively. For `CC1C2Cc3ccc(CN)cc3C1(C)CCN2CC1CC1` (mixture of isomers) [Example 15, (±)-[3-(Cyclopropylmethyl)-1,2,3,4,5,6,-hexahydro-cis-6,11-dimethyl-2,6-methano-3-benzazocin-8-yl]-methylamine], the Ki on δ opioid receptor (Ki [3H] Naltrindole (δ)) came to 390 ± 47 nM; at κ opioid receptor (Ki [3H] U69,593 (κ)) it was 17 ± 2.9 nM. For `CC1C2Cc3ccc(NC=O)cc3C1(C)CCN2CC1CC1` (single isomer, unassigned) [Example 19b] the same measures were greater than 10000 nM and 900 ± 8.7 nM. For `CC1C2Cc3ccc(C4=NCCN4)cc3C1(C)CCN2CC1CC1` (centres unmarked) [Example 13], in that order: 55 ± 5.1 nM and 11 ± 0.69 nM.
